ChEMBL document CHEMBL4819062, “Novel iodinated quinazolinones bearing sulfonamide as new scaffold targeting radiation induced oxidative stress” (Bioorg Med Chem Lett, 2021)

What was measured:
[1] = biological target: T1, Nuclear factor erythroid 2-related factor 2 (Mus musculus) (UniProt Q60795); assay: Activation of Nrf2 in mouse Hepa1c1c7 cells assessed as increase in NQO1 activity at 0.8 uM; type: cell-based; conditions: filed as activator
T1 sequence (whole entry): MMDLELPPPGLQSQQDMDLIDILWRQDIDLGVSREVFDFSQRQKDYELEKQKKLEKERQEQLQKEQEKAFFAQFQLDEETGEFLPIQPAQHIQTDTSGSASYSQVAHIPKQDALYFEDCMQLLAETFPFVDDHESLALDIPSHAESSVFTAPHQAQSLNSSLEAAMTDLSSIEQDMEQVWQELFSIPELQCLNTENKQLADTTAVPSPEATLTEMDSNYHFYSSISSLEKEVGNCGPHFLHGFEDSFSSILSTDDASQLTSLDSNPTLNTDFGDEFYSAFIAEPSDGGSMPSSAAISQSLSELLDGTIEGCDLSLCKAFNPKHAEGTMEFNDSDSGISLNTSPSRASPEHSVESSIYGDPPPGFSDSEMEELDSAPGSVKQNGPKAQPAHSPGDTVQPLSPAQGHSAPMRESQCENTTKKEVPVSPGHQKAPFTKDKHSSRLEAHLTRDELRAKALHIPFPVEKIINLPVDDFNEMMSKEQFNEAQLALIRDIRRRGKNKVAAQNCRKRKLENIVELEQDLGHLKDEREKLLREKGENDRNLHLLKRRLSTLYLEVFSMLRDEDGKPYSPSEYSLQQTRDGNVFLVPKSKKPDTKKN

[2] = biological target: T1, Nuclear factor erythroid 2-related factor 2 (Mus musculus); assay: Activation of Nrf2 in mouse Hepa1c1c7 cells assessed as increase in NQO1 activity at 0.4 uM; type: cell-based; conditions: filed as activator
[3] = Antioxidant activity assessed as DPPH radical scavenging activity; type: functional
[4] = biological target: T1, Nuclear factor erythroid 2-related factor 2 (Mus musculus); assay: Activation of Nrf2 in mouse Hepa1c1c7 cells assessed as increase in NQO1 activity at 3.125 uM; type: cell-based; conditions: filed as activator
[5] = biological target: T1, Nuclear factor erythroid 2-related factor 2 (Mus musculus); assay: Activation of Nrf2 in mouse Hepa1c1c7 cells assessed as increase in NQO1 activity at 50 uM; type: cell-based; conditions: filed as activator
[6] = biological target: T1, Nuclear factor erythroid 2-related factor 2 (Mus musculus); assay: Activation of Nrf2 in mouse Hepa1c1c7 cells assessed as increase in NQO1 activity at 25 uM; type: cell-based; conditions: filed as activator
[7] = biological target: T1, Nuclear factor erythroid 2-related factor 2 (Mus musculus); assay: Activation of Nrf2 in mouse Hepa1c1c7 cells assessed as increase in NQO1 activity at 6.25 uM; type: cell-based; conditions: filed as activator
[8] = biological target: T1, Nuclear factor erythroid 2-related factor 2 (Mus musculus); assay: Activation of Nrf2 in mouse Hepa1c1c7 cells assessed as increase in NQO1 activity at 1.6 uM; type: cell-based; conditions: filed as activator
[9] = biological target: T1, Nuclear factor erythroid 2-related factor 2 (Mus musculus); assay: Activation of Nrf2 in mouse Hepa1c1c7 cells assessed as increase in NQO1 activity at 12.5 uM; type: cell-based; conditions: filed as activator
[10] = biological target: T1, Nuclear factor erythroid 2-related factor 2 (Mus musculus); assay: Activation of Nrf2 in mouse Hepa1c1c7 cells assessed as increase in NQO1 activity at 15 uM; type: cell-based; conditions: filed as activator
[11] = biological target: T1, Nuclear factor erythroid 2-related factor 2 (Mus musculus); assay: Activation of Nrf2 in mouse Hepa1c1c7 cells assessed as increase in NQO1 activity at 3.75 uM; type: cell-based; conditions: filed as activator
[12] = biological target: T1, Nuclear factor erythroid 2-related factor 2 (Mus musculus); assay: Activation of Nrf2 in mouse Hepa1c1c7 cells assessed as increase in NQO1 activity at 7.5 uM; type: cell-based; conditions: filed as activator
[13] = biological target: T1, Nuclear factor erythroid 2-related factor 2 (Mus musculus); assay: Activation of Nrf2 in mouse Hepa1c1c7 cells assessed as increase in NQO1 activity at 0.2 uM; type: cell-based; conditions: filed as activator
[14] = biological target: T1, Nuclear factor erythroid 2-related factor 2 (Mus musculus); assay: Activation of Nrf2 in mouse Hepa1c1c7 cells assessed as increase in NQO1 activity at 0.9 uM; type: cell-based; conditions: filed as activator
[15] = biological target: T1, Nuclear factor erythroid 2-related factor 2 (Mus musculus); assay: Activation of Nrf2 in mouse Hepa1c1c7 cells assessed as increase in NQO1 activity at 1.9 uM; type: cell-based; conditions: filed as activator
[16] = biological target: T1, Nuclear factor erythroid 2-related factor 2 (Mus musculus); assay: Activation of Nrf2 in mouse Hepa1c1c7 cells assessed as increase in NQO1 activity at 30 uM; type: cell-based; conditions: filed as activator
[17] = biological target: T1, Nuclear factor erythroid 2-related factor 2 (Mus musculus); assay: Activation of Nrf2 in mouse Hepa1c1c7 cells assessed as increase in NQO1 activity at 0.5 uM; type: cell-based; conditions: filed as activator
[18] = biological target: T1, Nuclear factor erythroid 2-related factor 2 (Mus musculus); assay: Activation of Nrf2 in mouse Hepa1c1c7 cells assessed as increase in NQO1 activity at 20 uM; type: cell-based; conditions: filed as activator
[19] = biological target: T1, Nuclear factor erythroid 2-related factor 2 (Mus musculus); assay: Activation of Nrf2 in mouse Hepa1c1c7 cells assessed as concentration required to double induction to increase in NQO1 activity; type: cell-based; conditions: filed as activator
[20] = biological target: T1, Nuclear factor erythroid 2-related factor 2 (Mus musculus); assay: Activation of Nrf2 in mouse Hepa1c1c7 cells assessed as increase in NQO1 activity at 0.313 uM; type: cell-based; conditions: filed as activator
[21] = biological target: T1, Nuclear factor erythroid 2-related factor 2 (Mus musculus); assay: Activation of Nrf2 in mouse Hepa1c1c7 cells assessed as increase in NQO1 activity at 2.5 uM; type: cell-based; conditions: filed as activator
[22] = biological target: T1, Nuclear factor erythroid 2-related factor 2 (Mus musculus); assay: Activation of Nrf2 in mouse Hepa1c1c7 cells assessed as increase in NQO1 activity at 0.625 uM; type: cell-based; conditions: filed as activator
[23] = biological target: T1, Nuclear factor erythroid 2-related factor 2 (Mus musculus); assay: Activation of Nrf2 in mouse Hepa1c1c7 cells assessed as increase in NQO1 activity at 40 uM; type: cell-based; conditions: filed as activator
[24] = biological target: T1, Nuclear factor erythroid 2-related factor 2 (Mus musculus); assay: Activation of Nrf2 in mouse Hepa1c1c7 cells assessed as increase in NQO1 activity at 10 uM; type: cell-based; conditions: filed as activator
[25] = biological target: T1, Nuclear factor erythroid 2-related factor 2 (Mus musculus); assay: Activation of Nrf2 in mouse Hepa1c1c7 cells assessed as increase in NQO1 activity at 1.25 uM; type: cell-based; conditions: filed as activator
[26] = biological target: T1, Nuclear factor erythroid 2-related factor 2 (Mus musculus); assay: Activation of Nrf2 in mouse Hepa1c1c7 cells assessed as increase in NQO1 activity at 5 uM; type: cell-based; conditions: filed as activator

SMILES	Activity [1]	Activity [2]	IC50 [3] [µM]	Activity [4]	Activity [7]	Activity [8]	Activity [9]	Activity [18]	Activity [20]	Activity [21]	Activity [22]	Activity [23]	Activity [24]	Activity [25]	Activity [26]	also measured
NS(=O)(=O)c1ccc(-n2c(SCC(=O)Nc3ccncc3)nc3c(I)cc(I)cc3c2=O)cc1	1	1.04	112	1.06	1.15	1.02	1.31	–	–	–	–	–	–	–	–	Activity [5]: 1.89; Activity [6]: 1.65
NS(=O)(=O)c1ccc(-n2c(SCC(=O)Nc3c(Cl)cc(Cl)cc3Cl)nc3c(I)cc(I)cc3c2=O)cc1	–	–	161	–	–	–	–	–	–	–	–	–	–	–	–	Activity [10]: 1; Activity [11]: 1.02; Activity [12]: 1; Activity [13]: 1; Activity [14]: 1.06; Activity [15]: 1.04; Activity [16]: 1.02; Activity [17]: 1.02
NS(=O)(=O)c1ccc(-n2c(SCC(=O)Nc3cc(Cl)c(Cl)cc3Cl)nc3c(I)cc(I)cc3c2=O)cc1	–	–	59.8	–	–	–	–	1.25	1.01	1.07	1.03	1.3	1.1	1.05	1.08	–
NS(=O)(=O)c1ccc(-n2c(SCC(=O)Nc3ccc(F)cc3)nc3c(I)cc(I)cc3c2=O)cc1	1	0.98	158	0.99	1	0.99	1.06	–	–	–	–	–	–	–	–	Activity [5]: 1.19; Activity [6]: 1.13

The next compounds have a lower IC50 [3] than those just listed; values first:

Activity [1]	Activity [2]	IC50 [3] [µM]	Activity [4]	Activity [7]	Activity [8]	Activity [9]	Activity [18]	Activity [20]	Activity [21]	Activity [22]	Activity [23]	Activity [24]	Activity [25]	Activity [26]	SMILES	also measured
–	–	56.5	–	–	–	–	1.26	1.06	1.04	1.04	1.26	1.26	1.03	1.19	NS(=O)(=O)c1ccc(-n2c(SCC(=O)Nc3ccc(Cl)cc3)nc3c(I)cc(I)cc3c2=O)cc1	–
–	–	49.3	–	–	–	–	1.42	1.02	0.94	1.01	1.93	1.15	0.99	1.02	NS(=O)(=O)c1ccc(-n2c(SCC(=O)Nc3ccc(Br)cc3)nc3c(I)cc(I)cc3c2=O)cc1	Activity [19]: Dose-Dependent Effect; CD [19]: 40 µM
–	–	37.8	–	–	–	–	–	–	–	–	–	–	–	–	NS(=O)(=O)c1ccc(-n2c(SCC(=O)Nc3ccc(Br)cc3Br)nc3c(I)cc(I)cc3c2=O)cc1	Activity [10]: 1.13; Activity [11]: 1.09; Activity [12]: 1.08; Activity [13]: 1.01; Activity [14]: 1; Activity [15]: 1.02; Activity [16]: 1.17; Activity [17]: 1
0.99	0.94	30.5	1.09	1.5	0.98	1.7	–	–	–	–	–	–	–	–	NS(=O)(=O)c1ccc(-n2c(SCC(=O)Nc3ccc(Cl)cn3)nc3c(I)cc(I)cc3c2=O)cc1	–
